Data as given in the supplement of paper PMC4862054.

Experiments:
Conditions in all cases: 72 h
[1] = test system: MDA-MB-468
Outline: (§1)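 Two sequential readouts followed a 72 h incubation of breast cancer cell lines with compound at 5 concentrations in 10-fold steps over a compound-specific 10,000-fold range: CellTox Green fluorescence (485/520 nm) for cell death, then CellTiter-Glo luminescence, after 10 min at room temperature, for viability. Each plate was normalised to 0.1 % DMSO and a positive kill control. Dose-response curves were fitted for EC50, censored at the top concentration.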

[2] = test system: CAL-85-1
Experimental: (§2)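 Drug sensitivity and resistance testing (DSRT) of breast cancer cell lines in 384-well plates, 5 concentrations in 10-fold dilutions over a compound-specific 10,000-fold range. After 72 h, cytotoxicity was read by CellTox Green fluorescence and viability by CellTiter-Glo luminescence (multiplexed), normalised to DMSO and benzethonium chloride controls. EC50 is the inflection point of the fitted dose-response curve (bottom asymptote free, so it can be relative for partial curves) and is censored at the highest tested concentration. Rows with DSS 0 (no meaningful response) were excluded.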

[3] = test system: CAL-51
Experimental: as §2

[4] = test system: BT-549
Experimental: as §2

[5] = test system: MCF-10A
Experimental: as §2

[6] = test system: MDA-MB-231
Experimental: as §2

[7] = test system: MFM-223
Experimental: as §2

[8] = test system: CAL-120
Experimental: as §2

[9] = test system: Hs578T
Experimental: as §2

[10] = test system: MDA-MB-436
Experimental: as §2

[11] = test system: MDA-MB-468; remark: listed apart in the source
Experimental: as §2

[12] = test system: BT-474
Outline: (§3)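 Breast cancer cell lines in 20 µl suspension were seeded onto 384-well plates pre-loaded with compound dissolved in 5 µl medium, then incubated 72 h. For viability, 2.5 µl CellTiter-Blue was added for 2 h at 37 °C and fluorescence read at 560/590 nm. Each plate was normalised to vehicle and a positive kill control and checked by Z'-factor. EC50 comes from the fitted percent-inhibition dose-response curve, censored at the highest concentration; rows with zero drug sensitivity score were dropped.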

[13] = test system: CAL-85-1; remark: listed apart in the source
Outline: as §1

[14] = test system: CAL-51; remark: listed apart in the source
Outline: as §1

[15] = test system: BT-549; remark: listed apart in the source
Outline: as §1

[16] = test system: HCC1143
Outline: as §1

[17] = test system: HCC1599
Outline: as §1

[18] = test system: HDQ-P1
Outline: as §1

[19] = test system: MCF-10A; remark: listed apart in the source
Outline: as §1

[20] = test system: MDA-MB-231; remark: listed apart in the source
Outline: as §1

[21] = test system: MFM-223; remark: listed apart in the source
Outline: as §1

[22] = test system: SK-BR-3
Outline: as §1

[23] = test system: DU-4475
Outline: as §1

[24] = test system: BT-474; remark: listed apart in the source
Outline: as §1

[25] = test system: CAL-120; remark: listed apart in the source
Outline: as §1

[26] = test system: CAL-148
Outline: as §1

[27] = test system: Hs578T; remark: listed apart in the source
Outline: as §1

[28] = test system: MDA-MB-436; remark: listed apart in the source
Outline: as §1

[29] = test system: HCC1937
Outline: as §1

[30] = test system: MDA-MB-453
Outline: as §1

[31] = test system: HDQ-P1; remark: listed apart in the source
Outline: as §3

[32] = test system: HDQ-P1; remark: listed apart in the source
Experimental: as §2

[33] = test system: BT-474; remark: listed apart in the source
Experimental: as §2

[34] = test system: DU-4475; remark: listed apart in the source
Experimental: as §2

[35] = test system: CAL-148; remark: listed apart in the source
Experimental: as §2

| Compound | EC50, CellTiter-Glo [1] [nM] | EC50, CellTiter-Glo [15] [nM] | EC50, CellTiter-Glo [17] [nM] | EC50, CellTiter-Glo [20] [nM] | EC50, CellTiter-Glo [24] [nM] | EC50, CellTiter-Glo [28] [nM] | EC50, CellTiter-Glo [30] [nM] | EC50, CellTox Green [2] [nM] | EC50, CellTox Green [3] [nM] | EC50, CellTox Green [4] [nM] | EC50, CellTox Green [6] [nM] | EC50, CellTiter-Glo [13] [nM] | EC50, CellTiter-Glo [14] [nM] | EC50, CellTiter-Glo [18] [nM] | EC50, CellTiter-Glo [21] [nM] | also measured |
| --- | --- | --- | --- | --- | --- | --- | --- | --- | --- | --- | --- | --- | --- | --- | --- | --- |
| CCn1c(C(=O)N(C2CC2)C2CC2)cc2c3c(ncn3C)c(Nc3cc(C)n(C)n3)nc21 | > 10000 |  |  |  |  |  |  |  |  |  |  |  |  |  |  |  |
| Cc1cc(Nc2nc(N[C@@H](C)c3ncc(F)cn3)ncc2Cl)[nH]n1 [AZD1480] |  |  |  |  |  |  |  |  |  | > 1000 |  |  |  |  | 94.6 | EC50, CellTox Green [7]: 872 nM |
| CC(O)(CS(=O)(=O)c1ccc(F)cc1)C(=O)Nc1ccc(C#N)c(C(F)(F)F)c1 (configuration not stated) [Bicalutamide] |  |  |  |  |  |  | > 10000 |  |  |  |  |  |  |  |  |  |

Now from value to compound, other results behind:

| EC50, CellTiter-Glo [1] [nM] | EC50, CellTiter-Glo [15] [nM] | EC50, CellTiter-Glo [17] [nM] | EC50, CellTiter-Glo [20] [nM] | EC50, CellTiter-Glo [24] [nM] | EC50, CellTiter-Glo [28] [nM] | EC50, CellTiter-Glo [30] [nM] | Compound | EC50, CellTox Green [2] [nM] | EC50, CellTox Green [3] [nM] | EC50, CellTox Green [4] [nM] | EC50, CellTox Green [6] [nM] | EC50, CellTiter-Glo [13] [nM] | EC50, CellTiter-Glo [14] [nM] | EC50, CellTiter-Glo [18] [nM] | EC50, CellTiter-Glo [21] [nM] | also measured |
| --- | --- | --- | --- | --- | --- | --- | --- | --- | --- | --- | --- | --- | --- | --- | --- | --- |
| 397 | 499 | 752 | 740 | 575 | 507 | 149 | COc1ccc(S(=O)(=O)Nc2cccnc2Nc2ccc(O)cc2)cc1 [ABT-751] | 194 | 7380 | 190 | 497 | 264 | 6520 | 231 | 1010 | EC50, CellTox Green [5]: 6830 nM; EC50, CellTox Green [7]: 5430 nM; EC50, CellTox Green [8]: > 10000 nM; EC50, CellTox Green [9]: 1410 nM; EC50, CellTox Green [10]: 116 nM; EC50, CellTox Green [11]: 2.99 nM; EC50, CellTiter-Blue viability [12]: 552 nM; EC50, CellTiter-Glo [16]: 644 nM; EC50, CellTiter-Glo [19]: 5770 nM; EC50, CellTiter-Glo [22]: 529 nM; EC50, CellTiter-Glo [23]: 1510 nM; EC50, CellTiter-Glo [25]: 218 nM; EC50, CellTiter-Glo [26]: 6970 nM; EC50, CellTiter-Glo [27]: 773 nM; EC50, CellTiter-Glo [29]: 350 nM; EC50, CellTiter-Blue viability [31]: 245 nM |
| 563 | 5.97 |  | 278 | 83.8 |  | 4490 | CN[C@@H](C)C(=O)N[C@H]1CN(C(=O)CC(C)C)CC[C@H]2CC[C@@H](C(=O)NC(c3ccccc3)c3ccccc3)N2C1=O [AT-406] | 75.9 |  | 18.9 | 81.2 | 826 |  |  |  | EC50, CellTox Green [32]: 5140 nM; EC50, CellTox Green [33]: > 10000 nM |
| 3880 |  | 881 |  |  | 3040 |  | CNC(=O)c1ccccc1Sc1ccc2c(/C=C/c3ccccn3)n[nH]c2c1 [Axitinib] |  | 1180 |  |  |  | 465 | 4770 | 348 | EC50, CellTiter-Glo [25]: 3570 nM; EC50, CellTiter-Blue viability [31]: 474 nM |
| 4750 | 1670 | > 10000 | 4020 | 3980 | 4110 | 5370 | CC1(COc2ccc3c(c2)ncn3-c2ccc3cccc(N4CCC(N)CC4)c3n2)COC1 [Crenolanib] | 2620 | 4710 | 3000 | 2710 | 3970 | 2630 | 5070 |  | EC50, CellTox Green [32]: 1040 nM; EC50, CellTox Green [5]: 3370 nM; EC50, CellTox Green [34]: > 10000 nM; EC50, CellTox Green [33]: 2390 nM; EC50, CellTox Green [35]: 2530 nM; EC50, CellTox Green [10]: 29.3 nM; EC50, CellTiter-Glo [19]: 4780 nM; EC50, CellTiter-Glo [22]: 4180 nM; EC50, CellTiter-Glo [23]: 3330 nM; EC50, CellTiter-Glo [26]: 4350 nM; EC50, CellTiter-Glo [27]: 3340 nM; EC50, CellTiter-Glo [29]: > 10000 nM |
